Experimental data from US6495376B1, “Methods and compositions for regulating protein-protein interactions” (Beth Israel Deaconess Medical Center, priority 1999, dated 2002).
Where two headings read alike, the source gives them in different places.

Legend:
WFYpSPFLE (Pintide) = assay: Fluorescence anisotropy (polarization) binding to fluorescein-labeled phosphorylated Pintide analogue; conditions: for Kd for Pintide (μM): fluorescein labeled Pintide, high affinity pSer-binding site in the WW-domain
Excerpt: To determine the affinity of Pin1, and its WW or PPIase domain for phosphopeptides, peptides were labeled with fluorescein and their interactions with Pin1 measured using quantitative fluorescence anisotrophy. To prevent nonspecific labeling, a Pintide analogue (WFYpSPFLE) SEQ ID NO: 9 was used, which binds Pin1 with a high affinity based on the peptide library screen as described by (Lu, K. P. et al., U.S. Ser. No. 60/058,164 (1997), the teachings of which are incorporated herein in their entirety.
(§1) Pintide and its nonphosphorylated counterpart were synthesized and incubated with GST-Pin1 or the GST-WW-domain of Pin1 in a binding buffer, using established procedures (Shen, M. et al., Genes & Dev 12:706 (1998)). After a 1 hr incubation, mitotic HeLa cell extracts were added and subjected to GST pull down experiments, followed by immunoblotting analysis using the MPM-2 antibody. To obtain semi-quantitative data, films of immunoblots were scanned at the region of 55 kDa, the major Pin1-binding protein, and data analyzed using ImageQuan (ScanJet II CX). The peptide binding constants were measured using a fluorescence polarization assay (Jiskoot, W. et al., Anal Biochem 196:421 (1991)). Peptides were fluorescein labeled at the N-terminus using the Fluorescein Amine Labeling Kit (Pan Vera Corp.) and purified by TLC according to the manufacturer's […]. To prevent nonspecific labeling, a Pintide analogue (WFYpSPFLE) SEQ ID NO: 8 and the nonphosphorylated control were used. Various concentrations of Pin1 and its mutant proteins were incubated with 0.1 μM of the labeled peptides in a binding buffer containing 50 mM HEPES, pH 7.4, 100 mM NaCl, 2% glycerol. Fluorescence polarization values were obtained using a Pan Vera Beacon 2000 system, as described by the manufacturer.

[1] = tested on: MPM-2 antigens (mitotic phosphoproteins) of mitotic HeLa cell extracts; assay: GST pulldown from mitotic HeLa cell extracts, MPM-2 immunoblotting (phosphoprotein-binding activity); conditions: for Phosphoprotein binding activity: GST-fusion proteins with mitotic extracts, MPM2 antibody; for binding to mitotic phosphoproteins / MPM-2 antigens (in words): mitotic HeLa cell extracts
Description: GST-fusion proteins containing the WW-domain, PPIase-domain or the entire Pin 1 protein were prepared and incubated with interphase (G1/S arrested; Control) or dividing (M phase) HeLa cell extracts using well-known procedures (Lu, K. P., et al., Nature 380:544 (1996); (Shen, M., et al., Genes & Devl. 12:706 (1998)). Briefly, HeLa cells were arrested at the G1/S boundary or mitosis by incubation with thymidine and aphidicolin or nocodazole for 16 h, respectively. The cells were lysed and supernatants incubated with 10 μl of agarose beads containing GST-Pin1; GST-WW-domain of Pin1; GST-PPIase domain of Pin1; or control GST for 2 h at 4° C. The phosphorylated precipitated proteins were washed 5 times in buffer containing 1% Triton X-100 before subjecting to immunoblotting analysis using MPM-2 antibody, as described previously (Yaffe, M. B. et al., Science 278:1957 (1997); Schukowski, et al., Biochemistry 37:5566 (1998); Shen, M. et al., Genes & Dev 12:706 (1998)). MPM-2 recognizes a subset of mitotic phosphoproteins including Pin1-binding proteins such as cdc25.
as §1
To examine the effect of Pin1 phosphorylation on Pin1 binding to ligands, Pin1 and Pin1 mutant proteins were incubated with the catalytic subunit of PKA and PKC (a mixture of α, β and γ, UBI) in a kinase reaction buffer containing 500 μM cold ATP at 30° C. for 15 min (Lu, K. P. et al., Anal. Biochem. 196:421 (1991)). The reactions were stopped by adding SDS sample buffer and reaction products separated on SDS-gels, followed by autoradiography. Pin1 proteins were isolated and used to bind MPM-2 antigens from mitotic extracts from HeLa cells, as previously described (Shen, M., et al., Genes & Dev 12:706 (1998)). Experiments were also performed with PKA and PKC, casein kinase, cyclin B/Cdc2 and SRPK1 kinases.

peptide substrate = assay: PPIase activity assay with peptide substrate; type: biochemical; conditions: relative to wild-type protein defined as 100%
[2] = tested on: temperature-sensitive ptf1 yeast mutant (YPM2); assay: Rescue of temperature-sensitive ptf1 yeast mutant (in vivo function); type: cell-based; conditions: YPM2 cells, restrictive temperature
Description: Given the essential role of the WW-domain in conferring Pin1-binding specificity in vitro, a critical question is whether this domain is important in vivo. To address this question, experiments using the PIN1 yeast homologue, ESS1/PTF1 were performed. ESS1/PTF1 is essential for cell growth and human Pin1 can carry out this essential function when transfected into yeast cells (Lu, K. P. et al., Nature 380:544 (1996); Hanes, S. D. et al., Yeast 5:55 (1989); Hani, J. et al., FEBS Lett. 365:198 (1995)). A temperature-sensitive ptf1 mutant strain, YPM2, grows at the permissive temperature (23° C.), but not at the restrictive temperature (30° C.) (Hanes, S. D. et al., Yeast 5:55 (1989); Hani, J. et al., FEBS Lett. 365:198 (1995)). This phenotype is completely rescued by a 1.5 kb PTF1 genomic fragment, which also contains the promoter and the 3′ processing sequence (FIG. 3). To insure that all human Pin1 proteins were expressed at physiological levels under normal regulation, the coding sequence of the fully functional ESS1/PTF1 gene in a Yepvector was replaced with the coding sequence of the human PIN1 (or Pin1 mutant) cDNA (FIG. 3) and transformed into a temperature-sensitive ptf1 strain. Transformants were selected on minimal media minus Leu at the permissive temperature (23° C.) and protein expression was detected by immunoblotting analysis using 12CA5 monoclonal antibody specific for the HA epitope tag inserted at the N-terminus. […] Those strains expressing similar levels of Pin1 and Pin1 mutants were grown at permissive and nonpermissive temperature.

WFYSPFLE = assay: Fluorescence anisotropy binding to fluorescein-labeled nonphosphorylated control peptide; conditions: GST-WW-domains, N.B., not binding detected
[3] = biological target: EQPLpTPVTDL (Cdc25 Peptide); assay: Fluorescence anisotropy binding to fluorescein-labeled phosphorylated Cdc25 peptide; conditions: GST-WW-domains
[4] = biological target: […] (Cdc25 Peptide, nonphosphorylated); assay: GST-WW-domain incubated with peptide on a membrane, immunoblotting with GST antibody; type: binding
tau-promoted MT assembly = assay: Microtubule assembly light-scattering assay (turbidity at 350 nm); type: biochemical; conditions: 0.05 mg/ml protein, 0.05 mg/ml tau
Chain of tau-promoted MT assembly (P10636 45-219 isoform P10636-2 limits assumed): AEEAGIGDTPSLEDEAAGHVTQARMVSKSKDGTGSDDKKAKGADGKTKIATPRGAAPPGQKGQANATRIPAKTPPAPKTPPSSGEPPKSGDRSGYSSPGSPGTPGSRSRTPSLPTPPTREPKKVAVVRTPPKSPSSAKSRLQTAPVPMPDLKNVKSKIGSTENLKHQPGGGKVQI
Description: The effect of Pin1 on the ability of phosphorylated tau to promote MT assembly was determined using light-scattering assays (Bramblett, G. T. et al., Neuron 10:1089-1099(1993); Alonso, A. C. et al., Proc Natl Acad Sci USA 91:5562-5566 (1994); Busciglio, J. et al., Neuron 14:879-888 (1995)). Briefly, MTs were assembled from phosphocellulose purified bovine tubulin (Cytoskeleton, Inc) and stabilized by Taxol. The nonphosphorylated or Cdc2 phosphorylated recombinant tau (0.1 mg/ml) was incubated with Pin1 (0.1 mg/ml) at 35° C. for 5 min before adding to the MTs. Bound tau was isolated by centrifugation (50,000×g) at 25° C. for 20 min, followed by immunoblotting analysis using CP27 and Pin1 antibodies. The ability of tau to promote MT assembly was determined using well established light-scattering assays. Briefly, the assembly of MTs was initiated by incubating tubulin (2 mg/ml) with or without tau (0.05 mg/ml) in 80 mM PIPES, pH 6.8, 1 mM EGTA, 1 mM MgCl2, 1 mM GTP, 20% glycerol at 35° C. for 2 min. The mixture was then transferred to a 100 μl cuvet and the rate of the MT assembly was monitored at room temperature using the turbidity increase at 350 nm. To examine the effect of Pin1, Pin1 or its mutant (0.05 mg/ml) was pre-incubated with tau or Cdc2 phosphorylated tau (0.05 mg/ml) at 35° C. for 5 min before the MT assembly assays.

Pin1^R14A = biological target: T1, Pin1^R14A (Homo sapiens, UniProt Q13526, R14A); assay: ELISA peptide binding to Pin1^R14A; conditions: mutant Pin1^R14A
T1 construct: mitotic HeLa cell extracts incubated with the entire Pin1 protein or its WW-domain; GST or His (N); made in house
T1 sequence (Q13526 whole entry R14A): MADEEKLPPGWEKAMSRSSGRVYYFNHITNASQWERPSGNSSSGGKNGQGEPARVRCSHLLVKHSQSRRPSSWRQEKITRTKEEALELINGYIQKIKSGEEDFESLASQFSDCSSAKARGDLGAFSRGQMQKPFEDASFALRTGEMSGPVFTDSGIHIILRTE

Pin1^Y23A = biological target: T2, Pin1^Y23A (Homo sapiens, UniProt Q13526, Y23A); assay: ELISA peptide binding to Pin1^Y23A; conditions: mutant Pin1^Y23A
T2 construct: mitotic HeLa cell extracts incubated with the entire Pin1 protein or its WW-domain; GST or His (N); made in house
T2 sequence (Q13526 whole entry Y23A): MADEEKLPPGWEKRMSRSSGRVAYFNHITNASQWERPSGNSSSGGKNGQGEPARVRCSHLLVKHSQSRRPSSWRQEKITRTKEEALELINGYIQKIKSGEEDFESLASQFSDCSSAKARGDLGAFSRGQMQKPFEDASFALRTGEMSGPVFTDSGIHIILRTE

Pin1 = Pin1 (Homo sapiens, UniProt Q13526); assay: ELISA peptide binding to Pin1; conditions: Pin1
Chain of Pin1 (Q13526 whole entry): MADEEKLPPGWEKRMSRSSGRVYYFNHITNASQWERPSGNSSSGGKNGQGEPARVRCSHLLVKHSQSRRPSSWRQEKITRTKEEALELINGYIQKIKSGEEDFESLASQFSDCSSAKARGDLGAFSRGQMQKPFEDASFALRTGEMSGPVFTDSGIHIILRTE

[5] = low affinity binding site, read-out: WFYpSPFLE Kd(μM) Low affinity

“Pin1^W34A: Pin1 with single Ala point mutation of Trp-34 in the WW-domain” was tested, and the “Kd for Pintide (μM)” value (WFYpSPFLE (Pintide)) was “N.B”, the Kd (WFYpSPFLE (Pintide); [5]) was 14 µM and the Phosphoprotein binding activity [1] was “−”. For the same compound, the “binding to mitotic phosphoproteins / MPM-2 antigens (in words)” value [1] was “completely abolished”, the “PPlase Activity (%)” value (peptide substrate) was 94% and the “complementation of temperature-sensitive ptf1 phenotype (in words)” value (“complementation” below) [2] was “abolish the ability of Pin1 to support cell growth”.
For “Nedd4 WW-domain: GST-WW-domain of ubiquitin ligase Nedd4; text ties Table 1 to WW-domain-2”, the Kd (WFYpSPFLE (Pintide); GST-WW-domains, fluorescein-labeled peptide, average of three independent experiments, read-out: Kd (μM) Pintide WFYpSPFLE) was 10 µM, the “Kd (μM) Pintide nonphosphorylated WFYSPFLE” value (WFYSPFLE) was “N.B” and the “Kd (μM) Pintide nonphosphorylated WFYSPFLE” value (WFYSPFLE; listed as WW-domain of Nedd4) was “did not bind”. The Kd [3] was 20 µM, the “Kd (μM) Cdc25 Peptide EQPLTPVTDL” value [4] was “N.B.*” and the “binding to mitotic phosphoproteins / MPM-2 antigens (in words)” value [1] was “bound only a few MPM-2 antigens”.
“Pin1^Y23A: Pin1 with single Ala point mutation of Tyr-23 in the WW-domain” was tested, and the “Kd for Pintide (μM)” value (WFYpSPFLE (Pintide)) was “N.B”, the Kd (WFYpSPFLE (Pintide); [5]) was 13.5 µM and the Phosphoprotein binding activity [1] was “−”. The “binding to mitotic phosphoproteins / MPM-2 antigens (in words)” value [1] was “completely abolished”, the “PPlase Activity (%)” value (peptide substrate) was 85% and the “complementation” value [2] was “abolish the ability of Pin1 to support cell growth”. The “effect on ability of Cdc2 phosphorylated tau to promote MT assembly” value (tau-promoted MT assembly) was “did not have any effect”.
In the case of “Pin1^S16E: Pin1 with Ser-16 mutated to Glu”, the “WFYpSPFLE Kd(μM) High affinity” value (WFYpSPFLE (Pintide); high affinity binding site) is reported as “no high affinity-binding site”, the Kd (WFYpSPFLE (Pintide); [5]) is reported as 10.5 µM and the Phosphoprotein binding activity [1] is reported as “−”. For the same compound, the “binding to mitotic phosphoproteins / MPM-2 antigens (in words)” value [1] was “failed to bind mitotic phosphoproteins”, the “PPlase Activity (%)” value (peptide substrate) was 95% and the “complementation” value [2] was “abolish the ability of Pin1 to support cell growth”.
In the case of CC(C)[C@H](NC(=O)[C@H](C)NC(=O)[C@@H](NC(=O)[C@@H](N)CCCCN)C(C)C)C(=O)N[C@H](C(=O)N[C@@H](CCCNC(=N)N)C(=O)N[C@H](C(=O)N1CCC[C@H]1C(=O)N1CCC[C@H]1C(=O)N[C@@H](CCCCN)C(=O)N[C@@H](CO)C(=O)N1CCC[C@H]1C(=O)N[C@@H](CO)C(=O)O)[C@@H](C)OP(=O)(O)O)C(C)C [pT-231], the “Binding (OD@405 nm), tau peptide” value (Pin1^R14A) is reported as 1.30 OD@405 nm, the “Binding (OD@405 nm), tau peptide” value (Pin1^Y23A) is reported as 0.00 OD@405 nm and the “Binding (OD@405 nm), tau peptides” value (Pin1) is reported as 1.46 OD@405 nm.
